{"source": "patent US8501953B2", "about": "“PKM2 modulators for use in the treatment of cancer” (Agios Pharmaceuticals, Inc, priority 2009, dated 2013)"}
{"molecular_target": "PKM2 (Homo sapiens, UniProt P14618)", "sequence (P14618 whole entry)": "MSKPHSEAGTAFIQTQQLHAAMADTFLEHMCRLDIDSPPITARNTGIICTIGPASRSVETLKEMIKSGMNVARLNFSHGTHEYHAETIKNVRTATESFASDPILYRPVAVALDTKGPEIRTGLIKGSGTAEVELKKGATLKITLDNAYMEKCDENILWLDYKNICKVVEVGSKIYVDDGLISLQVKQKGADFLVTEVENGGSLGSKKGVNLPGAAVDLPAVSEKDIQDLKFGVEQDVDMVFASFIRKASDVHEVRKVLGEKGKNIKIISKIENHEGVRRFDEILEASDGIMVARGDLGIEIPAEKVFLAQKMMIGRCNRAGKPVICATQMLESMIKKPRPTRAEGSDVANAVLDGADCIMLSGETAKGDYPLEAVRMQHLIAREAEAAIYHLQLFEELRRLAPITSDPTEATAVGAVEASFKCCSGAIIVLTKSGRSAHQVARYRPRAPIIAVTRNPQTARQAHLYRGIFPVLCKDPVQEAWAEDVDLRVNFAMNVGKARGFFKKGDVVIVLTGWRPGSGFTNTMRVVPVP", "assay": "PKM2 Assay (activation; LDH-coupled, NADH absorbance at 340 nm)", "format": "biochemical", "conditions": "PKM2 50 ng/well, ADP 0.7 mM, PEP 0.15 mM, no FBP in Reaction Mix", "experimental": "• PKM2 stock enzyme solution was diluted in Reaction Buffer • 2 μL of compound was added into each well first, and then 180 μL of the Reaction Mix was added. • Reaction mixture with compound (without ADP) were incubated for 30 minutes at 4° C. • Plates were re-equilibrated to room temperature prior to adding 20 μL ADP to initiate the reaction. • Reaction progress was measured as changes in absorbance at 340 nm wavelength at room temperature (25° C.) Reaction Mix: PKM2 (50 ng/well), ADP (0.7 mM), PEP (0.15 mM), NADH (180 μM), LDH (2 units) in Reaction Buffer Reaction Buffer: 100 mM KCl, 50 mM Tris pH 7.5, 5 mM MgCl2, 1 mM DTT, 0.03% BSA.", "units": {"AC50": "µM"}}
{"smiles": "COc1cccc(F)c1S(=O)(=O)N(C)c1ccc2sc(=O)n(C)c2c1", "AC50": "10 to 50"}
{"smiles": "COc1ccc(C)cc1S(=O)(=O)Nc1ccc2sc(=O)n(C)c2c1", "AC50": "1 to 10"}
{"smiles": "CCC(C)n1c(=O)sc2ccc(NS(=O)(=O)c3cc(Cl)ccc3OC)cc21", "note": "(stereo not shown)", "AC50": "1 to 10"}
{"smiles": "COc1ccc(Cl)cc1S(=O)(=O)Nc1ccc2sc(=O)n(C)c2c1", "AC50": "10 to 50"}
{"smiles": "Cc1cc2c(cc1NS(=O)(=O)c1cccs1)oc(=O)n2C", "AC50": "10 to 50"}
{"smiles": "CCn1c(=O)sc2ccc(NS(=O)(=O)c3c(F)cccc3F)cc21", "AC50": "1 to 10"}
{"smiles": "O=c1[nH]c2cc(NS(=O)(=O)c3cccs3)ccc2s1", "AC50": "10 to 50"}
{"smiles": "Cn1c(=O)sc2ccc(NS(=O)(=O)c3ccccc3)cc21", "AC50": "10 to 50"}
{"smiles": "Cn1c(=O)sc2ccc(NS(=O)(=O)c3cccs3)cc21", "AC50": "10 to 50"}
{"smiles": "CCn1c(=O)sc2ccc(NS(=O)(=O)c3cc(C)ccc3OC)cc21", "AC50": "1 to 10"}
{"smiles": "Cn1c(=O)sc2cc(NS(=O)(=O)c3ccc(F)cc3)ccc21", "AC50": "10 to 50"}
{"smiles": "O=c1[nH]c2cc(NS(=O)(=O)c3cccc(Cl)c3)ccc2s1", "AC50": "10 to 50"}
{"smiles": "Cc1cc(C)cc(NS(=O)(=O)c2ccc3c(c2)sc(=O)n3C)c1", "AC50": "< 1"}
{"smiles": "COc1ccc(Cl)cc1S(=O)(=O)N1CCCN(S(=O)(=O)c2ccc3c(c2)sc(=O)n3C)CC1", "AC50": "< 1"}
{"smiles": "Cn1c(=O)sc2cc(S(=O)(=O)N3CCCN(S(=O)(=O)c4c(F)cccc4F)CC3)ccc21", "AC50": "1 to 10"}
{"smiles": "COc1ccc(Cl)cc1S(=O)(=O)N1CCN(S(=O)(=O)c2ccc3c(c2)sc(=O)n3C)CC1", "AC50": "1 to 10"}
{"smiles": "Cn1c(=O)sc2cc(S(=O)(=O)N3CCN(S(=O)(=O)c4c(F)cccc4F)CC3)ccc21", "AC50": "< 1"}
{"smiles": "Cn1c(=O)sc2cc(S(=O)(=O)N3CCN(S(=O)(=O)c4ccccc4)CC3)ccc21", "AC50": "1 to 10"}
{"smiles": "COc1ccc(S(=O)(=O)N2CCN(S(=O)(=O)c3ccc4c(c3)sc(=O)n4C)CC2)cc1", "AC50": "< 1"}
{"smiles": "COc1ccc(S(=O)(=O)N2CCCN(S(=O)(=O)c3ccc4c(c3)sc(=O)n4C)CC2)cc1", "AC50": "1 to 10"}
{"smiles": "Cn1c(=O)sc2cc(S(=O)(=O)N3CCCN(S(=O)(=O)c4ccccc4)CC3)ccc21", "AC50": "1 to 10"}
{"smiles": "Cc1cc(C)cc(NS(=O)(=O)c2cc3sc(=O)n(C)c3cc2Cl)c1", "AC50": "< 1"}
{"smiles": "Cn1c(=O)sc2cc(S(=O)(=O)Nc3cccc4ccccc34)ccc21", "AC50": "1 to 10"}
{"smiles": "Cn1c(=O)sc2cc(S(=O)(=O)Nc3ccc4ccccc4c3)ccc21", "AC50": "< 1"}
{"smiles": "Cn1c(=O)sc2cc(S(=O)(=O)Nc3cccc4ncccc34)ccc21", "AC50": "1 to 10"}
{"smiles": "Cn1c(=O)sc2cc(S(=O)(=O)Nc3ccc4ncccc4c3)ccc21", "AC50": "1 to 10"}
{"smiles": "Cn1c(=O)sc2cc(S(=O)(=O)Nc3ccc(F)c(Cl)c3)ccc21", "AC50": "< 1"}
{"smiles": "Cn1c(=O)sc2cc(S(=O)(=O)Nc3cccc(Cl)c3)ccc21", "AC50": "< 1"}
{"smiles": "Cc1cc(NS(=O)(=O)c2ccc3c(c2)sc(=O)n3C)ccc1F", "AC50": "< 1"}
{"smiles": "Cn1c(=O)oc2cc(S(=O)(=O)Nc3ccccc3Cl)ccc21", "AC50": "1 to 10"}
{"smiles": "COc1ccc(Cl)cc1NS(=O)(=O)c1cc2oc(=O)n(C)c2cc1C", "AC50": "1 to 10"}
{"smiles": "Cc1cc2c(cc1S(=O)(=O)N1CCCN(c3ccc(C(F)(F)F)cn3)CC1)oc(=O)n2C", "AC50": "1 to 10"}
{"smiles": "Cc1cc2c(cc1S(=O)(=O)N1CCN(c3ccc(C(F)(F)F)cn3)CC1)oc(=O)n2C", "AC50": "1 to 10"}
{"smiles": "CN(Cc1ccccc1)S(=O)(=O)c1ccc2c(c1)oc(=O)n2C", "AC50": "1 to 10"}
{"smiles": "Cc1cc2c(cc1S(=O)(=O)N1CCN(Cc3ccccc3)CC1)oc(=O)n2C", "AC50": "1 to 10"}
{"smiles": "Cn1c(=O)oc2cc(S(=O)(=O)NC(C)(C)C)ccc21", "AC50": "> 100"}
{"smiles": "Cn1c(=O)oc2cc(S(=O)(=O)Nc3ccccn3)ccc21", "AC50": "10 to 50"}
{"smiles": "Cc1cc(C)cc(NS(=O)(=O)c2cc3oc(=O)n(C)c3cc2C)c1", "AC50": "< 1"}
{"smiles": "O=c1oc2cc(S(=O)(=O)Nc3ccc(Cl)cc3)ccc2n1Cc1ccccc1", "AC50": "1 to 10"}
{"smiles": "O=c1oc2cc(S(=O)(=O)Nc3ccc(F)cc3)ccc2n1CCc1ccccc1", "AC50": "1 to 10"}
{"smiles": "O=c1oc2cc(S(=O)(=O)Nc3ccc(F)cc3)ccc2n1Cc1ccccc1", "AC50": "1 to 10"}
{"smiles": "Cn1c(=O)oc2cc(S(=O)(=O)Nc3ccc(Cl)cc3)ccc21", "AC50": "1 to 10"}
{"smiles": "Cn1c(=O)oc2cc(S(=O)(=O)Nc3ccc4c(c3)OCCO4)ccc21", "AC50": "1 to 10"}
{"smiles": "Cn1c(=O)oc2cc(S(=O)(=O)Nc3ccccc3)ccc21", "AC50": "1 to 10"}
{"smiles": "COc1ccc(Cl)cc1S(=O)(=O)N1CCN(S(=O)(=O)c2ccc3c(c2)oc(=O)n3C)CC1", "AC50": "1 to 10"}
{"smiles": "Cn1c(=O)oc2cc(S(=O)(=O)N3CCN(S(=O)(=O)c4c(F)cccc4F)CC3)ccc21", "AC50": "1 to 10"}
{"smiles": "Cn1c(=O)oc2cc(S(=O)(=O)N3CCN(S(=O)(=O)c4ccc5ccccc5c4)CC3)ccc21", "AC50": "< 1"}
{"smiles": "Cc1cc(C)cc(NS(=O)(=O)c2cc3oc(=O)n(C)c3cc2F)c1", "AC50": "< 1"}
{"smiles": "Cc1cc(C)cc(NS(=O)(=O)c2ccc3c(c2)oc(=O)n3CCc2ccccc2)c1", "AC50": "1 to 10"}
{"smiles": "Cc1cc(C)cc(NS(=O)(=O)c2ccc3c(c2)oc(=O)n3Cc2ccccc2)c1", "AC50": "1 to 10"}
{"smiles": "Cn1c(=O)oc2cc(S(=O)(=O)Nc3cc(F)cc(F)c3)ccc21", "AC50": "1 to 10"}
{"smiles": "Cn1c(=O)oc2cc(S(=O)(=O)Nc3ccc(Cl)c(F)c3)ccc21", "AC50": "1 to 10"}
